BigSolDB 2.1

CC(CO)(CO)C(=O)O
solubility (mole fraction)
Settings | in 1,4-dioxane | in MIBK | in cyclopentyl methyl ether | in ethyl acetate | in gamma-butyrolactone | in gamma-valerolactone | in n-butyl acetate
298.15 K | 0.00778 | 0.0149 | 0.00164 | 0.00368 | 0.00637 | 0.00643 | 0.00173
303.15 K | 0.00937 | 0.0164 | 0.00194 | 0.00388 | 0.00793 | 0.008 | 0.00199
308.15 K | 0.0124 | 0.0172 | 0.00239 | 0.00447 | 0.00942 | 0.00913 | 0.00234
313.15 K | 0.0147 | 0.0186 | 0.00276 | 0.00507 | 0.012 | 0.0107 | 0.00268
318.15 K | 0.0178 | 0.0192 | 0.00329 | 0.00646 | 0.0148 | 0.0124 | 0.00294
323.15 K | 0.0219 | 0.0202 | 0.00366 | 0.00745 | 0.0187 | 0.0146 | 0.00381
328.15 K | 0.0258 | 0.022 | 0.00381 | 0.00824 | 0.0214 | 0.0183 | 0.00433
333.15 K | 0.0334 | 0.0244 | 0.00433 | 0.0124 | 0.026 | 0.0218 | 0.00528
338.15 K | 0.0365 | 0.0259 | 0.00501 | 0.0147 | 0.0315 | 0.0251 | 0.00572
343.15 K | 0.041 | 0.0274 | 0.00598 | – | 0.0367 | 0.0305 | 0.00685
345.15 K | 0.0442 | – | – | – | 0.0392 | 0.0324 | –
348.15 K | 0.0479 | 0.0288 | 0.00621 | – | 0.042 | 0.037 | 0.00763
350.15 K | 0.0501 | – | – | – | 0.048 | 0.0386 | –
353.15 K | 0.0535 | 0.0296 | 0.00906 | – | 0.0529 | 0.0406 | 0.00902
